Experimental findings from patent US9242970B2 (ACTELION PHARMACEUTICALS LTD., priority 2010, dated 2016) are described below.

One assay has as its target human orexin-1 receptor (Homo sapiens (Human), UniProt O43613). As to the kind of experiment: In vitro assay: intracellular calcium measurements (FLIPR), antagonistic activity. Type of assay: cell-based. Conditions: CHO cells, 3 nM orexin-A, compound incubation 120 min; marked values are geometric means of n = 2-6; read-out: IC50 OX1. On the technique in general: Calcium assays in cells follow changes in intracellular calcium, usually with a dye or a luminescent sensor.

For the next assay, the target named is human orexin-2 receptor (Homo sapiens (Human), UniProt O43614). The description is as above. Type of assay: cell-based. To be noted: CHO cells, 3 nM orexin-A, compound incubation 120 min; marked values are geometric means of n = 2-6; read-out: IC50 OX2.
human orexin-2 receptor, sequence (O43614 whole entry): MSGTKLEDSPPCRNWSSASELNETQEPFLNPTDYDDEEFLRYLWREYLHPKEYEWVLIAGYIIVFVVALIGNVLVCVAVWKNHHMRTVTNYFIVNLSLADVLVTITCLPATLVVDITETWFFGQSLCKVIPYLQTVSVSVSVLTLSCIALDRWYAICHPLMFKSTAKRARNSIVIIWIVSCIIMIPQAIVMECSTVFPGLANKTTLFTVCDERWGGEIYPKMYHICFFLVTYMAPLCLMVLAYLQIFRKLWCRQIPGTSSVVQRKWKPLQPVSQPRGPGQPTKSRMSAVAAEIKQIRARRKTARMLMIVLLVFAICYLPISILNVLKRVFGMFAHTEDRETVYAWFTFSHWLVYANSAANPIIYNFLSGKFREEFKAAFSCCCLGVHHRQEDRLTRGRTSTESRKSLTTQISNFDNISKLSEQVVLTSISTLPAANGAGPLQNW

human orexin-1 receptor, sequence (O43613 whole entry): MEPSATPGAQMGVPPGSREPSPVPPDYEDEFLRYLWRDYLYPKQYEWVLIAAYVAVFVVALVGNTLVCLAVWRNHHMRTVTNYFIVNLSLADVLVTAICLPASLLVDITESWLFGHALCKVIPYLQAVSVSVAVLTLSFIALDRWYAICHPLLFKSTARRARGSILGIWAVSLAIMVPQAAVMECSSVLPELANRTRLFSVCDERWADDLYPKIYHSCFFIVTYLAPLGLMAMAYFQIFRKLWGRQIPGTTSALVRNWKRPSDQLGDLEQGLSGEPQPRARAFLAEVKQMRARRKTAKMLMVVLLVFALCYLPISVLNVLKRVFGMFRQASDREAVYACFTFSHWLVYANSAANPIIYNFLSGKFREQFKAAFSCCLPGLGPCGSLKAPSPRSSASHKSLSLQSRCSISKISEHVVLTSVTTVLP

By IC50 is commonly meant the point on the concentration scale where inhibition reaches its midpoint. Turning to `CCOc1cccc(F)c1C1CC(C)C(=O)N1Cc1cccc(-c2ncc(C)s2)c1` (stereo not drawn) [Example 384, 5-(2-ethoxy-6-fluorophenyl)-3-methyl-1-(3-(5-methylthiazol-2-yl)benzyl)pyrrolidin-2-one], the IC50 on human orexin-1 receptor was 0.111 µM; at human orexin-2 receptor, 0.002 µM.
As for `CCOc1cccc(F)c1C1CC(C)C(=O)N1Cc1cccc(-c2nc(Cl)cs2)c1` (stereo not drawn) [Example 385, 1-(3-(4-chlorothiazol-2-yl)benzyl)-5-(2-ethoxy-6-fluorophenyl)-3-methylpyrrolidin-2-one], the IC50 turned out to be 0.064 µM at human orexin-1 receptor and 0.002 µM on human orexin-2 receptor.
As for `CCOc1cccc(F)c1C1CC(C)C(=O)N1Cc1ccnc(-c2nc(C)cs2)c1` (stereo not drawn) [Example 386, 5-(2-ethoxy-6-fluorophenyl)-3-methyl-1-((2-(4-methylthiazol-2-yl)pyridin-4-yl)methyl)pyrrolidin-2-one], the results for the half-maximal inhibitory concentration (IC50) on human orexin-1 receptor and on human orexin-2 receptor were 0.039 µM and 0.002 µM, respectively.
For `COc1cccc(OC)c1C1CC(C)C(=O)N1Cc1ccc2c(c1)c1ccccc1n2C` (stereo not drawn) [Example 387, 5-(2,6-dimethoxyphenyl)-3-methyl-1-((9-methyl-9H-carbazol-3-yl)methyl)pyrrolidin-2-one] the same measures were 0.1 µM and 0.111 µM.
On to `COc1cccc(OC)c1C1CC(C)C(=O)N1Cc1cc2ccccc2n1C` (stereo not drawn) [Example 388, 5-(2,6-dimethoxyphenyl)-3-methyl-1-((1-methyl-1H-indol-2-yl)methyl)pyrrolidin-2-one], for which the results for the half-maximal inhibitory concentration (IC50) at human orexin-1 receptor and on human orexin-2 receptor were 0.083 µM and 0.132 µM, respectively.
`COc1cccc(OC)c1C1CC(C)C(=O)N1Cc1cc2cc(F)ccc2n1C` (stereo not drawn) [Example 390, 5-(2,6-dimethoxyphenyl)-1-((5-fluoro-1-methyl-1H-indol-2-yl)methyl)-3-methylpyrrolidin-2-one]: the IC50 at human orexin-1 receptor was found to be 0.08 µM; on human orexin-2 receptor, 0.142 µM.
For `COc1cccc(OC)c1C1CC(C)C(=O)N1Cc1ccc2c(ccn2C)c1` (stereo not drawn) [Example 391, 5-(2,6-dimethoxyphenyl)-3-methyl-1-((1-methyl-1H-indol-5-yl)methyl)pyrrolidin-2-one] the same measures were 0.175 µM and 0.529 µM.
`COc1cccc(OC)c1C1CC(C)C(=O)N1Cc1ccc2[nH]ccc2c1` (stereo not drawn) [Example 392, 1-((1H-indol-5-yl)methyl)-5-(2,6-dimethoxyphenyl)-3-methylpyrrolidin-2-one]: the IC50 at human orexin-1 receptor is 0.81 µM; on human orexin-2 receptor, 1.78 µM.
As to `COc1cccc(OC)c1C1CC(C)C(=O)N1Cc1ccc2sc(C)nc2c1` (stereo not drawn) [Example 393, 5-(2,6-dimethoxyphenyl)-3-methyl-1-((2-methylbenzo[d]thiazol-5-yl)methyl)pyrrolidin-2-one], the values for the IC50 on human orexin-1 receptor and at human orexin-2 receptor were 0.032 µM and 0.121 µM, respectively.
In the same order, the values of `COc1cccc(OC)c1C1CC(C)C(=O)N1Cc1ccc(OC(C)C)cc1` (stereo not drawn) [Example 397, 5-(2,6-dimethoxyphenyl)-1-(4-isopropoxybenzyl)-3-methylpyrrolidin-2-one] are 0.265 µM and 0.37 µM.
Regarding `COc1cccc(OC)c1C1CC(C)C(=O)N1Cc1ccc(SC(F)(F)F)cc1` (stereo not drawn) [Example 398, 5-(2,6-dimethoxyphenyl)-3-methyl-1-(4-((trifluoromethyl)thio)benzyl)pyrrolidin-2-one], the concentration for half-maximal inhibition (IC50) stood at 0.277 µM on human orexin-1 receptor and 0.428 µM at human orexin-2 receptor.
With `COc1cccc(OC)c1C1CC(C)C(=O)N1Cc1ccc(OC(F)(F)C(F)F)cc1` (stereo not drawn) [Example 399, 5-(2,6-dimethoxyphenyl)-3-methyl-1-(4-(1,1,2,2-tetrafluoroethoxy)benzyl)pyrrolidin-2-one], the 50% inhibitory concentration (IC50) on human orexin-1 receptor was 0.172 µM; at human orexin-2 receptor, 0.124 µM.
With `COc1cccc(OC)c1C1CC(C)C(=O)N1Cc1ccc(OC(F)(F)F)c(F)c1` (stereo not drawn) [Example 400, 5-(2,6-dimethoxyphenyl)-1-(3-fluoro-4-(trifluoromethoxy)benzyl)-3-methylpyrrolidin-2-one], the IC50 was 0.151 µM at human orexin-1 receptor and 0.183 µM at human orexin-2 receptor.
In the same order, the values of `COc1cccc(OC)c1C1CC(C)C(=O)N1Cc1ccc(OC(F)F)c(Cl)c1` (stereo not drawn) [Example 401, 1-(3-chloro-4-(difluoromethoxy)benzyl)-5-(2,6-dimethoxyphenyl)-3-methylpyrrolidin-2-one] are 0.164 µM and 0.155 µM.
For `COc1cccc(OC)c1C1CC(C)C(=O)N1Cc1ccc(OC(F)F)cc1` (stereo not drawn) [Example 402, 1-(4-(difluoromethoxy)benzyl)-5-(2,6-dimethoxyphenyl)-3-methylpyrrolidin-2-one], the IC50 at human orexin-1 receptor is 0.271 µM; on human orexin-2 receptor, 0.621 µM.
In the same order, the values of `COc1ccc(OC(F)(F)F)cc1CN1C(=O)C(C)CC1c1c(OC)cccc1OC` (stereo not drawn) [Example 403, 5-(2,6-dimethoxyphenyl)-1-(2-methoxy-5-(trifluoromethoxy)benzyl)-3-methylpyrrolidin-2-one] are 0.532 µM and 0.449 µM.
`COc1ccc(CN2C(=O)C(C)CC2c2c(OC)cccc2OC)cc1OC(F)(F)F` (stereo not drawn) [Example 404, 5-(2,6-dimethoxyphenyl)-1-(4-methoxy-3-(trifluoromethoxy)benzyl)-3-methylpyrrolidin-2-one]: the results for the half-inhibitory concentration (IC50) on human orexin-1 receptor and on human orexin-2 receptor were 0.965 µM and 0.513 µM, respectively.
In the same order, the values of `COc1cccc(OC)c1C1CC(C)C(=O)N1Cc1ccccc1OC(F)(F)F` (stereo not drawn) [Example 405, 5-(2,6-dimethoxyphenyl)-3-methyl-1-(2-(trifluoromethoxy)benzyl)pyrrolidin-2-one] are 0.555 µM and 0.087 µM.
In the same order, the values of `COc1cccc(F)c1C1CC(F)(F)C(=O)N1Cc1ccc2oc3ccccc3c2c1` (stereo not drawn) [Example 410, 1-(dibenzo[b,d]furan-2-ylmethyl)-3,3-difluoro-5-(2-fluoro-6-methoxyphenyl)pyrrolidin-2-one] are 0.143 µM and 0.012 µM.
Regarding `CC(C)Oc1cccc(F)c1C1CC(F)(F)C(=O)N1Cc1ccc(OC(F)(F)F)cc1` (stereo not drawn) [Example 411, 3,3-difluoro-5-(2-fluoro-6-isopropoxyphenyl)-1-(4-(trifluoromethoxy)benzyl)pyrrolidin-2-one], the IC50 is 1.49 µM at human orexin-1 receptor and 0.098 µM at human orexin-2 receptor.
For the molecule `CC(C)Oc1cccc(F)c1C1CC(C)C(=O)N1Cc1ccc(OC(F)(F)F)cc1` (stereo not drawn) [Example 413, 5-(2-fluoro-6-isopropoxyphenyl)-3-methyl-1-(4-(trifluoromethoxy)benzyl)pyrrolidin-2-one], the concentration for half-maximal inhibition (IC50) turned out to be 1.5 µM on human orexin-1 receptor and 0.068 µM at human orexin-2 receptor.
In the same order, the values of `CC1CC(c2c(F)cccc2OCCF)N(Cc2ccc(OC(F)(F)F)cc2)C1=O` (stereo not drawn) [Example 414, 5-(2-fluoro-6-(2-fluoroethoxy)phenyl)-3-methyl-1-(4-(trifluoromethoxy)benzyl)pyrrolidin-2-one] are 1.5 µM and 0.044 µM.
Consider `CC1CC(c2c(F)cccc2OCCO)N(Cc2ccc(OC(F)(F)F)cc2)C1=O` (stereo not drawn) [Example 416, 5-(2-fluoro-6-(2-hydroxyethoxy)phenyl)-3-meetthyl-1-(4-(trifluoromethoxy)benzyl)pyrrolidin-2-one], for which the IC50 turned out to be 2.94 µM at human orexin-1 receptor and 0.059 µM on human orexin-2 receptor.
For `COc1cccc(OC)c1C1CC(C)C(=O)N1Cc1cccc(OCC(F)(F)F)c1` (stereo not drawn) [Example 417, 5-(2,6-dimethoxyphenyl)-3-methyl-1-(3-(2,2,2-trifluoroethoxy)benzyl)pyrrolidin-2-one] the same measures were 0.123 µM and 0.11 µM.
